The values that follow come from PubChem BioAssay (NCI).

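These data come from cells grown in 96-well plates and exposed to compound for 48 hours at five concentrations. GI50 is the concentration that inhibits growth by half. Definition used: TGI = concentration required for complete inhibition of growth.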

Holding throughout (assay): NCI-60 cell line screen, 48 h
In experiment [1] the test system is OVCAR-3 ovarian.
The subject of experiment [2] is UO-31 renal.
The test system of experiment [3] is HL-60(TB) leukemia.
For experiment [4], the system named is CAKI-1 renal.
Experiment [5] concerns MCF7 breast.
In experiment [6] the test system is OVCAR-5 ovarian.
Experiment [7] has as its system PC-3 prostate.
The subject of experiment [8] is COLO 205 colon.
In experiment [9] the test system is K-562 leukemia.
Experiment [10] relates to HCT-116 colon.

With `CCn1ccc(NS(=O)(=O)c2ccc(N)cc2)nc1=O`, the GI50 in experiment [1], in experiment [2], in experiment [3], in experiment [4], in [5] and in [6] was over 100 µM throughout. The GI50 in experiment [7], in experiment [8], in experiment [9] and in experiment [10] was over 100 µM in each case. Further, the TGI in experiment [1], in experiment [2], in experiment [3], in experiment [4], in [5] and in [6] was over 100 µM each time. Also, the TGI in experiment [7], in experiment [8], in experiment [9] and in [10] was over 100 µM in each case.
As to `Nc1ccc(Sc2c3ccccc3nc3ccccc23)cc1`, the TGI worked out at 29.2 µM in [1]; 34.3 µM in [2]; 10.7 µM in experiment [3]; 39 µM in experiment [4]; 28.8 µM in experiment [5]; 52 µM in experiment [6]. In addition, the TGI came to 25.7 µM in [7], 37.6 µM in experiment [8], 22.6 µM in experiment [9] and 26.1 µM in experiment [10].
Regarding `CN(C)CCNC(=O)NC[C@H]1CC[C@@H]2[C@H](O1)c1cc(C(F)(F)F)ccc1N[C@H]2c1ccccc1`, the GI50 in [1] is 0.264 µM; in [2], 6.12 µM; in experiment [3], 0.154 µM; in experiment [4] it was 4.74 µM; in experiment [5], 0.0389 µM; in [6] it was 0.609 µM. In addition, the GI50 in [7] is 0.265 µM; in experiment [8], 0.0476 µM; in [9], 0.0757 µM; in experiment [10], 0.0414 µM. For the same compound, the TGI in experiment [1] was 10.3 µM; in experiment [2], 34.6 µM; in [3] it was 0.672 µM; in [4], over 68.2 µM; in experiment [5], 13.8 µM; in [6], 22.6 µM. Besides, the TGI in experiment [7] was 27 µM; in [8], 0.236 µM; in experiment [9] it was 14.8 µM; in experiment [10], 14.7 µM.
`C=CCc1c(O)c(C(=O)/C=C/c2ccccc2)c(OC)c2ccoc12`: the GI50 is 2.46 µM in experiment [1]; 2.89 µM in [2]; 2.8 µM in [4]; 2.73 µM in experiment [5]; 3.22 µM in experiment [6]; 3.68 µM in experiment [7]. In addition, the GI50 is 5.96 µM in experiment [8], 2.87 µM in [9] and 3.03 µM in experiment [10]. In addition, the TGI in experiment [1] turned out to be 7.06 µM; in experiment [2], 14.5 µM; in experiment [4], 11 µM; in experiment [5] it was 10.4 µM; in experiment [6], 12.7 µM; in [7] it was 16.8 µM. Further, the TGI in [8] came out at 18.1 µM; in [9] it was 16.2 µM; in experiment [10], 11.1 µM.
Regarding `CN(C)c1ccc(N=C2C=CC(=O)c3ccccc32)cc1`, the GI50 in [1] is 1.28 µM; in experiment [2], 2.28 µM; in experiment [3] it was 2.15 µM; in [4], 3.58 µM; in experiment [5] it was 1.87 µM; in experiment [6] it was 12.6 µM. The GI50 was 2.66 µM in experiment [7], 2.06 µM in [8], 2 µM in [9] and 2.88 µM in [10]. Moreover, the TGI worked out at 3.08 µM in experiment [1]; 16.6 µM in experiment [2]; 4.52 µM in [3]; 16.3 µM in experiment [4]; 7.46 µM in [5]; 28.8 µM in experiment [6]. The TGI in experiment [7] stood at 19.8 µM; in experiment [8], 4.15 µM; in [9], 4.75 µM; in experiment [10], 13.3 µM.
Consider `Cc1nccc2c3ccc(OCc4cn(-c5ccc(Cl)cc5)nn4)cc3n(CC(C)C)c12`, for which the GI50 is 5.15 µM in [1]; 1.72 µM in experiment [2]; 0.886 µM in experiment [3]; 1.45 µM in [5]; 4.68 µM in experiment [6]; 1.52 µM in experiment [7]. Besides, the GI50 in experiment [8] is 1.51 µM; in experiment [9], 0.992 µM; in [10], 1.3 µM. For the same compound, the TGI in [1] is over 33.3 µM; in experiment [2] it was 14 µM; in experiment [3], 2.07 µM; in experiment [5], 9.29 µM; in experiment [6], 23.2 µM; in experiment [7], over 33.3 µM. In addition, the values for the TGI in experiment [8], in experiment [9] and in [10] were 6.8 µM, over 33.3 µM and 5.65 µM, respectively.
With `CCCN1CCC(c2ccc(Nc3nc(Nc4cc(F)ccc4C(N)=O)c4cc[nH]c4n3)c(OC)c2)CC1`, the GI50 in experiment [1] is 3.66 µM; in experiment [2], 2.14 µM; in experiment [3], 0.0565 µM; in [4], 3.16 µM; in experiment [5] it was 0.0185 µM; in experiment [6], 2.78 µM. The GI50 in [7] is 2.69 µM; in [8], 0.0183 µM; in experiment [9], 0.681 µM; in experiment [10] it was 0.178 µM. Also, the TGI came out at 7.25 µM in [1]; 6.54 µM in experiment [2]; 5.81 µM in experiment [3]; 9.56 µM in experiment [4]; 4.23 µM in experiment [5]; 9.48 µM in [6]. For the same compound, the TGI in [7] stood at 9.53 µM; in experiment [8], 1.78 µM; in experiment [9], 2.8 µM; in [10], 3.61 µM.
In the case of `C#Cc1cccc(NC(=O)c2ccc(NC(=O)CCl)cc2)c1`, the GI50 in experiment [1] was 12.7 µM; in [2], 9.48 µM; in [3], 15.7 µM; in experiment [4] it was over 82.5 µM; in experiment [5] it was 22.6 µM; in [6], 21.4 µM. Also, the GI50 in [7] was 15.4 µM; in experiment [8] it was 23.7 µM; in experiment [9], 17.4 µM; in experiment [10] it was 11.9 µM. In addition, the TGI is 25.7 µM in experiment [1]; 20.3 µM in [2]; 45 µM in experiment [3]; over 82.5 µM in experiment [4]; over 82.5 µM in [5]; over 82.5 µM in experiment [6]. Moreover, the TGI was 60.4 µM in experiment [7], over 82.5 µM in experiment [8], over 82.5 µM in experiment [9] and 36.3 µM in experiment [10].
Regarding `O=C(O[C@H]1CCN2C[C@H]3C[C@H](CN4C(=O)CCC[C@H]34)[C@@H]2C1)c1ccc(O)cc1`, the TGI in [1], in experiment [2], in [4], in experiment [5], in experiment [6] and in experiment [7] was over 100 µM throughout. The TGI in experiment [8], in experiment [9] and in experiment [10] was over 100 µM each time.
For `CN1CCN(Cc2ccc(NC(=O)c3cncc(C#Cc4cnc(N)c5cnccc45)c3)cc2C(F)(F)F)CC1`, the GI50 in [1] is 0.337 µM; in [2], 0.42 µM; in experiment [3], 0.0926 µM; in experiment [4], 0.979 µM; in experiment [5], 0.921 µM; in experiment [6], 0.162 µM. The GI50 in [7] was 0.284 µM; in [8], 0.0982 µM; in experiment [9], 0.005 µM; in [10] it was 0.142 µM. Also, the TGI in [1] is 8.43 µM; in [2], 1.31 µM; in experiment [3] it was 0.585 µM; in [4] it was 6.61 µM; in experiment [5], 8.75 µM; in experiment [6], 4.39 µM. Also, the TGI in [7] came out at 8.97 µM; in experiment [8] it was 6 µM; in experiment [9], 0.732 µM; in experiment [10], 1.74 µM.
For `CN1CCN(Cc2cc(NC(=O)c3cccc(C#Cc4cccc5[nH]nc(N)c45)c3)cc(C(F)(F)F)c2)CC1`, the GI50 was 1.92 µM in experiment [1]; 1.71 µM in experiment [2]; 1.89 µM in [3]; 1.68 µM in experiment [4]; 1.65 µM in [5]; 1.5 µM in experiment [6]. In addition, the GI50 is 1.81 µM in experiment [7] and 1.53 µM in experiment [8]. For the same compound, the TGI in experiment [1] came to 3.56 µM; in [2] it was 3.16 µM; in experiment [3], 4.42 µM; in [4] it was 3.06 µM; in experiment [5], 3.26 µM; in experiment [6], 2.98 µM. Further, the TGI was 3.52 µM in experiment [7] and 2.98 µM in [8].
With `CC1(C)N=C(N)N=C(N)N1c1cccc(Br)c1`, the GI50 in experiment [1] was 6.56 µM; in [2] it was 6.69 µM; in experiment [3] it was 0.491 µM; in experiment [4] it was 41.9 µM; in [5], 0.665 µM; in experiment [7] it was 0.212 µM. The GI50 was 8.39 µM in experiment [8], 0.0597 µM in [9] and 0.069 µM in experiment [10]. For the same compound, the TGI in [1] is over 100 µM; in [2], over 100 µM; in experiment [3], over 73.8 µM; in experiment [4], over 100 µM; in experiment [5], over 100 µM; in experiment [7] it was over 100 µM. Further, the TGI in [8], in experiment [9] and in experiment [10] was over 100 µM each time.
For `COc1cccc(Nc2nccc(-c3cnn4ncccc34)n2)c1`, the GI50 in experiment [2] is 0.0707 µM; in [3] it was 0.0553 µM; in experiment [4], 0.0573 µM; in [5], 0.076 µM; in experiment [6], 0.0812 µM; in experiment [7] it was 0.0652 µM. Further, the GI50 in experiment [8] was 0.0433 µM; in experiment [9] it was 0.115 µM; in [10] it was 0.0478 µM. Besides, the TGI in experiment [2] was 0.21 µM; in experiment [3], 0.163 µM; in experiment [4] it was 3.77 µM; in experiment [5], over 25 µM; in [6], over 25 µM; in experiment [7], 1.32 µM. For the same compound, the TGI is 0.0988 µM in experiment [8], over 25 µM in experiment [9] and over 11 µM in experiment [10].
Consider `COCCn1cc(-c2csc(-c3c[nH]c4ccc(Br)cc34)n2)c2cccnc21`, for which the GI50 in experiment [1] is 3.9 µM; in [2], 3.1 µM; in experiment [4], 5.21 µM; in experiment [5] it was 1.79 µM; in experiment [6], 4.83 µM; in [7] it was 3.68 µM. Also, the values for the GI50 in experiment [8], in [9] and in experiment [10] were 3.22 µM, 3.6 µM and 3.84 µM, respectively. The TGI in experiment [1], in experiment [2], in experiment [4], in experiment [5], in experiment [6] and in experiment [7] was over 100 µM in each case. Moreover, the TGI in experiment [8] is 34 µM; in [9] it was over 100 µM; in experiment [10] it was over 100 µM.
`CCCCCCCC(=O)[O][Hg][CH2]C1COC([CH2][Hg][O]C(=O)CCCCCCC)CO1` (centres undefined): the GI50 in [1] was 4.22 µM; in [3], 2.77 µM; in experiment [5] it was 4.32 µM; in experiment [6], 20.1 µM; in experiment [7], 13.7 µM; in experiment [8] it was 3.72 µM. Besides, the figures for the GI50 in experiment [9] and in experiment [10] were 2.09 µM and 2.29 µM, respectively. The TGI in [1] is 14.8 µM; in experiment [3] it was over 100 µM; in experiment [5] it was 18.3 µM; in experiment [6] it was 34.3 µM; in [7], 26.7 µM; in experiment [8], 14.6 µM. Moreover, the figures for the TGI in [9] and in experiment [10] were over 100 µM and 8.26 µM, respectively.
As to `COc1ccc(/C=C2\c3cc(OC)c(OC)c(OC)c3CC[C@@H]2O)cc1F`, the GI50 was 0.262 µM in experiment [1]; 0.534 µM in experiment [2]; 0.391 µM in experiment [4]; 0.088 µM in [5]; 10.4 µM in experiment [6]; 0.474 µM in experiment [7]. In addition, the GI50 in [8] was 1.03 µM; in experiment [9], 0.0865 µM; in [10], 0.331 µM. Besides, the TGI in [1] is over 100 µM; in experiment [2], 89.9 µM; in experiment [4], over 100 µM; in experiment [5], over 100 µM; in [6] it was over 100 µM; in experiment [7] it was over 100 µM. Besides, the TGI in experiment [8] is 7.59 µM; in experiment [9] it was over 100 µM; in [10] it was over 100 µM.
